From publication PMC7352342, “Inhibition of Patched Drug Efflux Increases Vemurafenib Effectiveness against Resistant Braf^V600E Melanoma” (Cancers, 2020)
Like-named read-outs stand apart in the source and are kept apart here.

Experiments:
A375 cells [1] = assay: BODIPY-cholesterol efflux measurement, A375 cells; type: cell-based, human; conditions: sPAH in efflux buffer, 30 min
MeWo cells [2] = assay: Dxr efflux measurement by fluorescence microscopy, MeWo cells; type: cell-based, human; conditions: 30 min in efflux buffer
Description: Dxr efflux measurements were carried out as previously described. Cells were seeded on coverslips in 24-well plates and allowed to grow to 80% confluence. Coverslips were incubated at 37 °C and 5% CO2 with 10 μM dxr in physiological buffer (140 mM NaCl, 5 mM KCl, 1 mM CaCl2, 1 mM MgSO4, 5 mM glucose, 20 mM HEPES, pH 7.4). After 2 h, three coverslips were immediately fixed with 4% PFA for the dxr loading control, rapidly washed with PBS and mounted in SlowFade Gold antifade reagent with DAPI (Invitrogen). The other coverslips (triplicated per condition) were incubated with physiological buffer supplemented with DMSO or 10 µM of PAH under gentle shaking at room temperature and protected from light. After 30 min, coverslips were fixed with 4% PFA, washed, and mounted as described above. For competition on dxr loading, A375 and WM9R cells seeded on coverslips were incubated for 1 h at 37 °C and 5% CO2 with 10 μM dxr in physiological buffer in the presence or the absence of 100 µM vemurafenib. Images were acquired with a Zeiss Axioplan 2 fluorescence microscope coupled to a digital charge-coupled device camera using a 40×/1.3 Plan NeoFluar objective and filters for Alexa 594. Dxr fluorescence was quantified using ImageJ software. Sampling of cells was performed randomly. About 100 cells (from three wells) were scored per condition per experiment.

[3] = Cytotoxicity assay (neutral red), WM9S cells; type: cell-based; conditions: human, WM9S melanoma cells; read-out: sPAH-IC50 (cytotoxicity of sPAH alone)
Description: (§1) Human melanoma cell lines A375 and MeWo were purchased from ATCC, and cultured in DMEM medium supplemented with 10% fetal bovine serum and penicillin/streptomycin (Invitrogen) at 37 °C in a 5% CO2/95% water-saturated air atmosphere. Melanoma cell lines SKMEL 28, SKMEL V3, WM9S, and WM9R were provided by Robert Ballotti (C3M, Nice, France). MeWo-dxrR cells were obtained by adding increasing concentrations of doxorubicin, up to 0.2 µM, in the culture medium over 6 months. These cells were grown in medium supplemented with 0.2 µM dxr. WM9R cells were obtained by adding increasing concentrations of vemurafenib, up to 5 µM, in the culture medium over 6 months. These cells were grown in medium supplemented with 5 µM vemurafenib. HEK cells were grown in 75 mm tissue culture dishes (Falcon, Franklin Lakes, NJ, USA) in Dulbecco’s modified Eagle’s medium (Gibco, Life Technologies, Saint Aubin, France) supplemented with 10% fetal calf serum (Hyclone, Thermo Fisher Scientific GMBH, Ulm, Germany) and 1% penicillin/streptomycin (Gibco, Life Technologies, Saint Aubin, France) in a humidified incubator at 37 °C (5% CO2).
(§2) Cells were seeded in 96-well plates in triplicate and grown in medium to achieve 70 to 80% confluence. […] Measurements were made in microplate readers (Multiskan Go Microplate Spectrophotometer from Thermo Scientific).

WM9S cells = assay: Cytotoxicity assay (neutral red), WM9S cells; type: cell-based; conditions: WM9S; 24 h; sPAH between 10 and 20 µM
Description: as §1, §2

[4] = Metabolic stability with mice liver microsomes and NADPH; type: in vitro ADME
Description: A 10 µL aliquot of the sPAH stock solution (10 mM in DMSO) was diluted in 990 µL of a mixture of acetonitrile and water. This solution was then diluted 100-fold in phosphate buffer containing mice liver microsomes (0.5 mg/mL), 1 mM NADPH, and 3 mM MgCl2, and incubated at 37 °C. After 2, 10, 20, 40, and 60 min, 70 µL aliquots were collected and mixed with 70 µL acetonitrile at 0 °C. Equivalent experiments were performed without NADPH in order to identify chemical instability or enzymatic process not depending on NADPH, and with testosterone as a positive control. The enzymatic reaction was stopped by addition of acetonitrile. Samples were analyzed by LC–MS/MS on an UHPLC LC–MS 8030 (Shimazu, Kyoto, Japan).
For metabolite identification, 50 µM of sPAH were incubated with mice liver microsomes and NADPH. Two samples were prepared: one in which acetonitrile was added immediately (t0) and one in which acetonitrile was added after 30 min. After centrifugation for 5 min at 15,000× g, 2 samples of each supernatant were analyzed by LC–MS/MS on a LC–MS 8030 (Shimazu, Kyoto, Japan) and detected by selected ion monitoring (SIM).

A375 cells [5] = assay: Wound-healing assay, A375 cells; type: cell-based, human; conditions: 48 h after wounding, sPAH added to vemurafenib
Description: Once cells were confluent in 24-well plates, a wound was created using a p200 tip. Two pictures were taken at two different points of each well immediately after wounding, and 48 h after wounding. Images were taken with Leica DM IRB (5×). The width of the wound was measured using ImageJ software and reported as percentage final wound width/initial wound width.

[6] = Cytotoxicity assay (neutral red), MeWo cells; type: cell-based, human; conditions: human, MeWo melanoma cells, MeWo; 24 or 48 h; read-out: sPAH-IC50 (cytotoxicity of sPAH alone)
Description: as §1
(§3) Cells were seeded in 96-well plates in triplicate and grown in medium to achieve 70 to 80% confluence. Medium was then removed and replaced with 100 µL/well of complete medium containing PAH or DMSO as a control. After 2 h, 100 µL of complete medium containing serial dilutions of dxr, cisplatin or vemurafenib were added. Plates were incubated at 37 °C and 5% CO2. After 24 or 48 h, cells were incubated for 3 h at 37 °C with 100 µL/well neutral red (NR) solution (50 µg/mL in medium) following the manufacturer’s protocol. Measurements were made in microplate readers (Multiskan Go Microplate Spectrophotometer from Thermo Scientific).

MeWo cells [7] = assay: Cytotoxicity assay (neutral red), MeWo cells; type: cell-based, human
Description: as §1, §3

A375 cells [8] = assay: Cytotoxicity assay (neutral red), A375 cells; type: cell-based, human; conditions: A375
Description: as §1, §3

[9] = Cytotoxicity assay (neutral red), A375 cells; type: cell-based, human; conditions: human, A375 melanoma cells, A375; 24 or 48 h; read-out: sPAH-IC50 (cytotoxicity of sPAH alone)
Description: as §1, §3

## COc1cc(C)c(CC/C(C)=C/Cc2cc(O)ccc2O)c(C)c1C [sPAH, Panicein A hydroquinone]
A375 cells [1]
  efflux of BODIPY-cholesterol: inhibited the efflux of cholesterol
MeWo cells [2]
  inhibition of dxr efflux, synthetic compared with natural PAH: as efficiently as the natural PAH
[3]
  IC50: 28.6 ± 5.1 µM
WM9S cells
  sensitivity of cells to vemurafenib in the presence of sPAH: significantly increased
[4]; 50 µM, mice liver microsomes and NADPH, 30 min
  metabolic fate (LC-MS/MS): rapidly oxidized in its quinone form
[4]; mouse, liver microsomes, mice microsomes and NADPH, 37 °C
  half-life at 1 µM: 1 min
A375 cells [5]
  effect on vemurafenib efficacy against cell migration: increased vemurafenib efficacy
[6]
  IC50: 36 ± 2.3 µM
MeWo cells [7]; MeWo cells, 2 µM Dxr present, listed as Synthetic PAH, read-out: IC50 of PAH at 2 µM Dxr
  IC50: 8.1 ± 1.3 µM
MeWo cells [7]; MeWo, 24 or 48 h, read-out: sPAH-IC50 (cytotoxicity of sPAH alone)
  IC50: ~40 µM
MeWo cells [7]; MeWo, sPAH 20 µM vs DMSO (Figure S2)
  IC50 of cisplatin in the presence of sPAH: significantly decreased
A375 cells [8]; 24 or 48 h, read-out: sPAH-IC50 (cytotoxicity of sPAH alone)
  IC50: 38.3 ± 6.8 µM
A375 cells [8]; 24 h, sPAH between 10 and 20 µM
  sensitivity of cells to vemurafenib in the presence of sPAH: significantly increased
A375 cells [8]; sPAH 20 µM vs DMSO (Figure S2)
  IC50 of cisplatin in the presence of sPAH: significantly decreased
[9]
  IC50: ~40 µM
